Entries after “also recorded” stand apart in the source; their conditions may differ.
Columns and labels:
[1] = Safety and tolerability, Parkinson's disease patients (NCT02970019); type: in vivo, human; conditions: for Possibly related AEs by subject: daily for 14 days
Source text: Of these, 44 subjects completed the study. An additional 10 subjects were enrolled in the open label part of the study, of these, one subject was discontinued due to an AE of vomiting.
Safety population was comprised of 48 subjects (not including those in the open label cohorts) and PK population was comprised of 36 subjects from double blind part and 10 subjects from open label part of the study. No subjects were discontinued from the study due to protocol deviation.
(§1) Study NCT02970019 was a multi-center safety and tolerability study of vodobatinib in 60 subjects with Parkinson's Disease (diagnosed with PD according to the Brain Bank criteria of the United Kingdom Parkinson's Disease Society) who were randomized to receive placebo or various daily doses of vodobatinib for 14 days in a parallel assignment design with quadruple masking (participant, care provider, investigator, and outcomes assessor.) In study NCT02970019, consecutive cohorts of up to eight subjects received once-daily doses of 6, 12, 18, 24, 48, 96, 192, or 384 mg of study drug for 14 days, with six subjects in each cohort on vodobatinib and two subjects in each cohort on placebo. An alternating panel design was used such that subjects in the 6 and 18 mg cohorts were the same, and subjects in the 12 and 24 mg cohorts were the same, thus yielding 48 total individuals enrolled in the eight cohorts. There was a wash-out period of 14 days between each were studied in sequential ascending dose cohorts. In parallel to the double-blind cohorts, up to four subjects per dose cohort were enrolled in an open-label study of vodobatinib to receive 24, 48 or 96 mg once-daily doses of for 14 days. These subjects underwent lumbar puncture to collect CSF on Day 1, and 2-3 h after the last morning dose on Day 14. PK blood draws (for both double-blind and open label) were collected at pre-dose (˜30 min) and at 0.5, 1, 2, 4, 8, 12 and 24 h post-dose on Days 1 and 14.

[2] = CSF concentration, Parkinson's disease patients, open label part, Day 14; type: in vivo, human; conditions: for mean CSF level: 2-3 h post dose, Day 14, PD patients; for Concentration in CSF Mean (SD): Day 14, 2-3 h post dose, PD patients open label; for Concentration in CSF Geo. Mean / Concentration in CSF Median: Day 14, PD patients open label
Protocol: A single CSF sample was collected at either 2 h or 3 h following the dose on Day 14.
as §1
Vodobatinib levels in plasma and CSF were determined using a fully validated LC-MS/MS assay with lower limits of quantitation (LLOQ) of 2.5 ng/mL and 0.05 ng/mL, respectively. PK analyses were performed using standard non-compartmental analysis with Phoenix® WinNonlin® software Version 6.4 to estimate the PK parameters Cmax, Tmax, AUCtau and Css. Descriptive statistics were used to characterize vodobatinib concentrations and PK parameters in plasma and CSF. Statistical calculations were performed with SAS software (Version 9.4, SAS Institute, Cary, North Carolina, USA).

[3] = molecular target: Abl (Homo sapiens, UniProt P00519); assay: Biochemical kinase assay, native Abl (radiometric substrate phosphorylation)
Abl, sequence (P00519 whole entry): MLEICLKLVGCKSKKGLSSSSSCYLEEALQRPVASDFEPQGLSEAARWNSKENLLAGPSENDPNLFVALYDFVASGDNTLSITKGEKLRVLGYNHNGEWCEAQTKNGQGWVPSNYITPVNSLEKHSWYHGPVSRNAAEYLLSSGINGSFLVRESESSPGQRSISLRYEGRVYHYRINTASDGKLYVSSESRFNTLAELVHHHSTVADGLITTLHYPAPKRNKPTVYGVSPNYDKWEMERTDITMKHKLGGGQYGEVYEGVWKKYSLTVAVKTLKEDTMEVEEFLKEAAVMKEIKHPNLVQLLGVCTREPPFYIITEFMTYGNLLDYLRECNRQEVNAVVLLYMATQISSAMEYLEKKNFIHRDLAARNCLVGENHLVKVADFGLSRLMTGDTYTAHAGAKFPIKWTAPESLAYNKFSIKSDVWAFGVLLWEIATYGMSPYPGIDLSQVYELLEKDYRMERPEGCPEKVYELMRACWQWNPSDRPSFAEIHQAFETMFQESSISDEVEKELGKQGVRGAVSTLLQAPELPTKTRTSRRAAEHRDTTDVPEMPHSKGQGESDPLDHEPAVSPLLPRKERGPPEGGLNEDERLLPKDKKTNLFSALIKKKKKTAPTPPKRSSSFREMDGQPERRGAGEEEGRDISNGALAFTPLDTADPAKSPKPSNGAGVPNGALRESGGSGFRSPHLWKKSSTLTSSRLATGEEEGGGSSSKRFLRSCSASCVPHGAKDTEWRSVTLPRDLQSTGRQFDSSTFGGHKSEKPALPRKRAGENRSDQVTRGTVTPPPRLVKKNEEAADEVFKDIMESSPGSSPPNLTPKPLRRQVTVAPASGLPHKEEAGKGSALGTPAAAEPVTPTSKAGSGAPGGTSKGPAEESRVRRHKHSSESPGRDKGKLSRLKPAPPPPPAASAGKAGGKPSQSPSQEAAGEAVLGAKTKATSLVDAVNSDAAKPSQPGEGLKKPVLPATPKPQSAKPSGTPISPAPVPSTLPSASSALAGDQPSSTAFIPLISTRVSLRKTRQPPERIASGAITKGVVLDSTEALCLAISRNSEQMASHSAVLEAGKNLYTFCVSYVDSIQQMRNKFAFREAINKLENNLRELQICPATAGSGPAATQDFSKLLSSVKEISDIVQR
Protocol: Conventional biochemical kinase assays, using radioactivity and fluorescence as readouts, were used to derive half maximal-inhibitory concentrations (IC50) values.
Inhibition of c-Abl kinase activity by vodobatinib was determined in a radiometric detection assay using γ-33P-labeled-ATP. […] (Abl substrate peptide), 10 mM magnesium acetate, and [γ-33P-ATP]. The reaction was initiated by addition of an MgATP mix. Following incubation for 40 minutes at room temperature, the reaction was stopped by addition of 3% phosphoric acid solution. The radiolabeled substrate was separated onto a P30 filtermat, which was washed with 75 mM phosphoric acid and methanol, and dried, following which radioactivity incorporated into the substrate was determined by scintillation counting. Similar assessments were also carried out using recombinant murine c-Abl enzyme using the identical assay format as described above.

Cc1ccc(C(=O)NNC(=O)c2c(C)cccc2Cl)cc1C#Cc1cnc2ccccc2c1 [N′-(2-chloro-6-methylbenzoyl)-4-methyl-3-[2-(3-quinolyl)ethynyl]-benzohydrazide]
n/N (number of AEs per number of subjects in dose group) ([1]; 6 mg DB): 6 mg DB (5/8)
Possibly related AEs by subject ([1]; 6 mg DB, listed as Vodobatinib): Increased appetite, feet & ankle weakness, infraorbital puffiness,; also recorded: increased tremor and dry eyes
n/N (number of AEs per number of subjects in dose group) ([1]; 12 mg DB): 12 mg DB (3/8)
Possibly related AEs by subject ([1]; 12 mg DB, listed as Vodobatinib): Light-headedness; also recorded: Decreased balance & decreased gait
n/N (number of AEs per number of subjects in dose group) ([1]; 18 mg DB): 18 mg DB (3/6)
Possibly related AEs by subject ([1]; 18 mg DB): New onset atrial fibrillation and orthostasis (moderate severity)
n/N (number of AEs per number of subjects in dose group) ([1]; 24 mg DB): 24 mg DB (1/8)
Possibly related AEs by subject ([1]; 24 mg DB): None
n/N (number of AEs per number of subjects in dose group) ([1]; 24 mg OL): 24 mg OL (3/3)
Possibly related AEs by subject ([1]; 24 mg OL, listed as Vodobatinib): Vertigo, headache, nausea, weakness, vomiting (all moderate
n/N (number of AEs per number of subjects in dose group) ([1]; 48 mg DB): 48 mg DB (2/8)
Possibly related AEs by subject ([1]; 48 mg DB): None
n/N (number of AEs per number of subjects in dose group) ([1]; 96 mg DB): 96 mg DB (2/8)
Possibly related AEs by subject ([1]; 96 mg DB, listed as Vodobatinib): Abdominal pain and soft stool; also recorded: Brain fog, worsening of right lower leg cramps
n/N (number of AEs per number of subjects in dose group) ([1]; 96 mg OL): 96 mg OL (2/4)
Possibly related AEs by subject ([1]; 96 mg OL, listed as Vodobatinib): Dry eyes; also recorded: Worsening of muscle cramps (“probably related”)
n/N (number of AEs per number of subjects in dose group) ([1]; 192 mg DB): 192 mg DB (3/8)
Possibly related AEs by subject ([1]; 192 mg DB, listed as Vodobatinib): Mild rash, epigastric pain; also recorded: Somnolence, worsening of left upper extremities resting tremor; also recorded: Erythematous, pruritic rash on torso and head
subjects discontinued due to AEs ([1]; 192 mg, 384 mg (double-blind), 24 mg (open-label)): Three
changes in laboratory values ([1]; PD patients): no clinically significant drug related changes
changes in the QT interval ([1]; PD patients): no drug-related changes
overall safety and tolerability ([1]; PD patients): acceptable safety and tolerability
changes in laboratory values ([1]; PD patients, listed as vodobatinib): no clinically significant drug-related changes
number of TEAEs, overall ([1]; PD subjects, 14 days): 63
subjects reporting TEAEs, overall ([1]; PD subjects, 14 days): 32
Most common treatment related TEAEs (>1 subject) ([1]; double-blind part): rash, abdominal pain and tremor
number of TEAEs ([1]; double-blind part): 42
subjects reporting TEAEs ([1]; double-blind part): Twenty-three
subjects reporting TEAEs ([1]; double-blind, 6 mg cohort): 3
subjects reporting TEAEs ([1]; double-blind, 12 mg cohort): 3
subjects reporting TEAEs ([1]; double-blind, 18 mg cohort): 2
subjects reporting TEAEs ([1]; double-blind, 24 mg cohort): one
subjects reporting TEAEs ([1]; double-blind, 48 mg cohort): one
subjects reporting TEAEs ([1]; double-blind, 96 mg cohort): 2
subjects reporting TEAEs ([1]; double-blind, 192 mg cohort): 3
subjects reporting TEAEs ([1]; double-blind, 384 mg cohort): 5
most severe TEAE ([1]; one subject, 48 mg group, treatment unrelated, resolved): asthenia of grade 3 severity
number of TEAEs ([1]; open-label part): 21
subjects reporting TEAEs ([1]; open-label part): Nine
number of TEAEs ([1]; open-label, 24 mg cohort (3 subjects)): 10
number of TEAEs ([1]; open-label, 48 mg cohort (3 subjects)): 6
number of TEAEs ([1]; open-label, 96 mg cohort (3 subjects)): 5
number of treatment related TEAEs ([1]; overall): 35
subjects reporting treatment related TEAEs ([1]; overall): Twenty-one
mean CSF level ([2]; 24 mg): 1.5 nM
Concentration in CSF Mean (SD) ([2]; 24 mg): 0.6550 (0.2447) ng/mL
Concentration in CSF Mean (SD) ([2]; 24 mg, listed as vodobatinib): 0.66 ng/mL
Concentration in CSF Geo. Mean ([2]; 24 mg): 0.6317 ng/mL
Concentration in CSF Median ([2]; 24 mg): 0.6550 ng/mL
mean CSF level ([2]; 48 mg): 1.5 nM
Concentration in CSF Mean (SD) ([2]; 48 mg): 0.6683 (0.744) ng/mL
Concentration in CSF Mean (SD) ([2]; 48 mg, listed as vodobatinib): 0.67 ng/mL
Concentration in CSF Geo. Mean ([2]; 48 mg): 0.8868 ng/mL
Concentration in CSF Median ([2]; 48 mg): 0.5350 ng/mL
mean CSF level ([2]; 96 mg): 2.4 nM
Concentration in CSF Mean (SD) ([2]; 96 mg): 1.1193 (0.4533) ng/mL
Concentration in CSF Mean (SD) ([2]; 96 mg, listed as vodobatinib): 1.1 ng/mL
Concentration in CSF Geo. Mean ([2]; 96 mg): 1.0482 ng/mL
Concentration in CSF Median ([2]; 96 mg): 1.0850 ng/mL
times more potent than nilotinib ([3]; 0.9 nM vs 20 nM): 20
IC50 ([3]; Table 1): 0.9 nM

Source: patent US20250275953A1, “VODOBATINIB FOR REDUCING PROGRESSION OF PARKINSON'S DISEASE” (Sun Pharma Advanced Research Company Ltd., priority 2022, published 2025)
